# Assays:
# Stage 6 cells [1] = test: Perifusion GSIS with sequential secretagogue challenges; type: cell-based, human; details: for insulin secretion during second challenge, secretagogue added to 20 mM glucose: 30 mM KCL, 20 mM L-Arginine, 300 μM Tolbutamide, 100 μM IBMX, 10 nM Extendin-4
# Procedure: The system used a high precision 8-channel dispenser pump (ISMATEC; ISM931C) in conjunction with 0.015″ inlet and outlet two-stop tubing (ISMATEC; 070602-04i-ND) connected to 275-μl cell chamber (BioRep; Pen-Chamber) and dispensing nozzle (BioRep; PERI-NOZZLE) using 0.04″ connection tubbing (BioRep; Peri-TUB-040). Solutions, tubing, and cells were maintained at 37° C. in a water bath. Stage 6 clusters and cadaveric human islets were washed with KRB twice and resuspended in 2 mM glucose KRB. Cells were then loaded onto a Biorep perifusion chamber sandwiched between two layers of Bio-Gel P-4 polyacrylamide beads (Bio-Rad; 150-4124). Cells were perfused with 2 mM glucose KRB for 90 min prior to sample collection for equilibration. For single high glucose challenges, sample collection was started with cells exposed to 2 mM glucose KRB for 12 min, followed by 24 min of 20 mM glucose KRB, and back to 2 mM glucose KRB for an additional 12 min. For multiple secretagogue challenges, sample collection was started with cells exposed to 2 mM glucose KRB for 6 min, followed by 12 min of 20 mM glucose KRB, 6 min 2 mM glucose KRB, 12 min of 20 mM glucose KRB plus treatment, and finally 6 min of 2 mM glucose KRB. Treatments with multiple secretagogues were as follows: 20 mM glucose only, 10 nM Extendin-4 (MilliporeSigma; E7144), 100 μM IBMX (MilliporeSigma; 15879), 300 μM Tolbutamide (MilliporeSigma; T0891), 20 mM L-Arginine (MilliporeSigma; A5006), and 30 mM KCL (Thermo Fisher; BP366500). Effluent was collected at a 100 μl/min flow rate with 2-4 min collection points. After sample collection, clusters were collected and lysed in 10 mM Tris (MilliporeSigma; T6066), 1 mM EDTA, and 0.2% Triton-X 100 solution and DNA was quantified using Quant-iT Picogreen dsDNA assay kit (Invitrogen; P7589). Insulin secretion was quantified using the Human Insulin Elisa kit.
# plated stage 4 cells = test: qRT-PCR and immunostaining of plated stage 4 cells treated with cytoskeletal modifying compounds; type: cell-based, human
# Excerpt: For experiments investigating the effects of plating pancreatic progenitors, cells were differentiated with the suspension protocol for stages 1-3. At the end of stage 3, clusters were single cell dispersed with TrypLE and plated onto tissue culture plates coated with various ECM proteins at 0.625×10^6 cells/cm^2. Differentiation media for the remainder of this hybrid protocol were the same as for the suspension protocol with the exception that Y-27632 and Activin A were omitted on days 2-5 of stage 4. Additional compounds were added as indicated in each experiment: 1 μM latrunculin A (Cayman Chemical, 10010630), 1 μM latrunculin B (Cayman Chemical, 10010631), 1 μM cytochalasin D (MilliporeSigma, C2618), 1 μM jasplakinolide (Cayman Chemical, 11705), 10 μM blebbistatin (MilliporeSigma, 203389), 1 μM nocodazole (Cayman Chemical, 13857), 1 μM Y-15 (Cayman Chemical, 14485), 10 μM Y-27632, and 10 μM GDC-0994 (Selleckchem, S7554). A variety of ECM coatings were initially tested with this plating methodology, including collagen I (Corning, 354249), collagen IV (Corning, 354245), fibronectin (Gibco, 33016-015), vitronectin (Gibco, A14700), matrigel (Corning, 356230), gelatin (Fisher, G7-500), and laminins 111, 121, 211, 221, 411, 421, 511, and 521 (Biolamina, LNKT-0201). All subsequent experiments with this hybrid protocol were performed on collagen I.
# Brightfield images were taken with a Leica DMi1 inverted light microscope, and fluorescence images were captured with a Nikon A1Rsi confocal microscope. For immunostaining, cells were fixed with 4% paraformaldehyde (PFA) at room temperature for 30 minutes. They were then blocked and permeabilized for 45 minutes at room temperature with an immunocytochemistry (ICC) solution consisting of 0.1% triton X (Acros Organics, 327371000) and 5% donkey serum (Jackson Immunoresearch, 017000-121) in PBS (Corning, 21-040-CV). Samples were then incubated with primary antibodies diluted in ICC solution overnight at 4° C., washed with ICC, incubated with secondary antibodies diluted in ICC for 2 hours at room temperature, and stained with DAPI for 15 minutes at room temperature. For histological sectioning, whole SC-β cell clusters generated with the planar protocol and mouse kidneys containing transplanted cells were fixed overnight with 4% PFA at 4° C. The in vitro clusters were also embedded in Histogel (Thermo Scientific, hg-4000-012). These samples were then paraffin-embedded and sectioned by the Division of Comparative Medicine (DCM) Research Animal Diagnostic Laboratory Core at Washington University in St. Louis. Paraffin was removed from sectioned samples with Histoclear (Thermo Scientific, C78-2-G), and antigen retrieval was carried out in a pressure cooker (Proteogenix, 2100 Retriever) with 0.05 M EDTA (Ambion, AM9261). Slides were blocked and permeabilized with ICC solution for 45 minutes, incubated with primary antibodies in ICC solution overnight at 4° C., and incubated with secondary antibodies for 2 hours at room temperature. Slides were then sealed with DAPI Fluoromount-G (SouthernBiotech, 0100-20).
# RNA was extracted from either whole clusters or cells directly on the plate with the RNeasy Mini Kit (Qiagen, 74016). Samples were treated with a DNAse kit (Qiagen, 79254) during extraction. The High Capacity cDNA Reverse Transcriptase Kit (Applied Biosystems, 4368814) was used to synthesize cDNA on a thermocycler (Applied Biosystems, A37028). The PowerUp SYBR Green Master Mix (Applied Biosystems, A25741) was used on a StepOnePlus (Applied Biosystems), and real time PCR results were analyzed using a ΔΔCt methodology. TBP and GUSB were both used as housekeeping genes. Primer sequences were as follows.
# Stage 6 cells [2] = tested on: Stage 6 cells
# Procedure: (§1) Assays were performed by collecting ˜20-30 stage 6 clusters or cadaveric human islets, washed twice with KRB buffer (128 mM NaCl, 5 mM KCl, 2.7 mM CaCl2) 1.2 mM MgSO4, 1 mM Na2HPO4, 1.2 mM KH2PO4, 5 mM NaHCO3, 10 mM HEPES (Gibco; 15630-080), and 0.1% BSA), resuspended in 2 mM glucose KRB, and placed into transwells (Corning; 431752) in 24-well plates. Clusters were incubated at 2 mM glucose KRB for a 1 hr equilibration. The transwell was then drained and transferred into a new 2 mM glucose KRB well, discarding the old KRB solution. Clusters were again incubated for 1 hr at low glucose and then the transwell is drained and transferred into a new 2, 5.6, 11.1, or 20 mM glucose KRB well, retaining the old 2 mM glucose KRB. Clusters were then incubated for 1 hr at high glucose and then the transwell was drained and the old glucose KRB was retained. The retained KRB was run with the Human Insulin Elisa (ALPCO; 80-INSHU-E10.1) to quantify insulin secretion. The cells were single-cell dispersed by TrypLE treatment, counted on a Vi-Cell XR, and viable cell counts used to normalize insulin secretion.
# [3] = tested on: TGFβ signaling (phosphorylated SMAD); test: Western blot of SMAD 2/3 phosphorylation in Stage 6 cells; type: cell-based, human; details: Alk5i versus DMSO
# Procedure: Protein was extracted from cell clusters after washing with PBS by placing in western blot lysis buffer consisting 50 mM HEPES, 140 mM NaCl (MilliporeSigma; 7647-14-5), 1 mM EDTA (MilliporeSigma, 1233508), 1% Triton X-100, 0.1% Na-deoxycholate (MilliporeSigma: D6750), 0.1% SDS (ThermoScientific; 24730020), 1 mM Na3VO4 (MilliporeSigma; 450243), 10 mM NaF (MilliporeSigma; S7920), and 1% Protease Inhibitor Cocktail (MilliporeSigma; p8340), incubating on a shaker for 15 min at 4° C., and centrifuging at 10000 RCF for 10 min at 4° C. Protein amount was quantified with the Pierce BCA Protein Assay (Thermo Scientific; 23228). Protein (30 μg) was loaded onto a 4-20% gradient polyacrylamide gel (Invitrogen; SP04200BOX), resolved by electrophoresis, and transferred onto a 0.45 μm nitrocellulose membrane (BioRad; 1620115). The nitrocellulose membrane was blocked with Blotting Grade Blocker (BioRad; 170-6404) and incubated with rabbit-anti-phospho-SMAD⅔ 1:1000 (Cell Signaling Technologies; 8828) and rabbit-anti-Actin 1:1000 (Santa Cruz Biotechnology; SC1616) antibodies in blocker overnight at 4° C. Membrane was washed and stained with rabbit secondary antibody 1:2500 (Jackson Immuno Research Laboratories; 211-032-171) in blocker for 2 hr at 4° C. and developed using SuperSignal West Femto (Thermo Scientific; 34096). Images were taken on an Odyssey FC (Li-COR). After imaging, the nitrocellulose membrane was stripped using Restore Western Blot Stripping Buffer (Thermo Scientific; 21059), incubated with rabbit-anti-SMAD⅔ (Cell Signaling Technologies; 8685) antibody overnight at 4° C., washed and stained with rabbit secondary antibody 1:2500 in blocker for 2 hr 4° C., developed using SuperSignal West Femto, and imaged using the Odyssey FC.
# Stage 5 cells = tested on: Stage 5 cells
# Procedure: To initiate differentiation, undifferentiated cells were single-cell dispersed using Accutase and seeded at 6×10^5 cells/mL in mTeSR1+10 μM Y27632 in a 30-ml spinner flask. Cells were then cultured for 72 hr in mTeSR1 and then cultured in the following differentiation media. Stage 1 (3 days): S1 media+100 ng/ml Activin A (R&D Systems; 338-AC)+3 μM Chir99021 (Stemgent; 04-0004-10) for 1 day. S1 media+100 ng/ml Activin A for 2 days. Stage 2 (3 days): S2 media+50 ng/ml KGF (Peprotech; AF-100-19). Stage 3 (1 day): S3 media+50 ng/ml KGF+200 nM LDN193189 (Reprocell; 040074)+500 nM PdBU (MilliporeSigma; 524390)+2 μM Retinoic Acid (MilliporeSigma; R2625)+0.25 μM Sant1 (MilliporeSigma; S4572)+10 μM Y27632. Stage 4 (5 days): S4 media+5 ng/mL Activin A+50 ng/mL KGF+0.1 μM Retinoic Acid+0.25 μM SANT1+10 μM Y27632. Stage 5 (7 days): S5 media+10 μM ALK5i II (Enzo Life Sciences; ALX-270-445-M005)+20 ng/mL Betacellulin (R&D Systems; 261-CE-050)+0.1 μM Retinoic Acid+0.25 μM SANT1+1 μM T3 (Biosciences; 64245)+1 μM XXI (MilliporeSigma; 595790). Stage 6 (7-35 days): ESFM.
# as §1
# Clusters were single-cell dispersed with TrypLE, fixed with 4% paraformaldehyde for 30 min at 4° C., blocked and permeabilized with staining buffer for 30 min at 4° C., incubated with primary antibodies in staining buffer overnight at 4° C., incubated with secondary antibodies in staining buffer for 2 hr at 4° C., resuspended in staining buffer, and analyzed on an LSRII (BD Biosciences) or X-20 (BD Biosciences). Dot plots and percentages were generated using FlowJo. All antibodies were used at 1:300 dilution except where noted. The antibodies used were: rat-anti-C-peptide, mouse-anti-nkx6.1 (1:100), mouse-anti-glucagon, rabbit-anti-somatostatin, rabbit-anti-chromogranin A (1:1000), goat-anti-pdx1, anti-rat-alexa fluor 488, anti-mouse-alexa fluor 647 (Invitrogen; a31571), anti-rabbit-alexa fluor 647 (Invitrogen; a31573), anti-goat-alexa fluor 647 (Invitrogen; a21447), anti-rabbit-alexa fluor 488 (Invitrogen; a21206).
# RNA was extracted using the RNeasy Mini Kit (Qiagen; 74016) with DNase treatment (Qiagen; 79254), and cDNA was synthesized using High Capacity cDNA Reverse Transcriptase Kit (Applied Biosystems; 4368814). Real-time PCR reactions were performed in PowerUp SYBR Green Master Mix (Applied Biosystems; A25741) on a StepOnePlus (Applied Biosystems) and analyzed using ΔΔCt methodology. TBP was used as a normalization gene.
molecule,measurement,setting,value
CC(C)Cn1c(=O)n(C)c(=O)c2[nH]cnc21 [3-isobutyl-1-methylxanthine],"insulin secretion during second challenge, secretagogue added to 20 mM glucose",Stage 6 cells [1],increased insulin secretion over high glucose alone
[Cl-].[K+] [KCl],response of Stage 6 cells to KCl challenge compared to human islets,Stage 6 cells [1]; 30 mM KCL with 20 mM glucose,stronger than in human islets
same,"insulin secretion during second challenge, secretagogue added to 20 mM glucose",Stage 6 cells [1],largest increases
exendin-4,"insulin secretion during second challenge, secretagogue added to 20 mM glucose",Stage 6 cells [1],increased insulin secretion over high glucose alone
C/C1=C/C(=O)O[C@@H]2C[C@@H](CC[C@H](C)/C=C\CC1)O[C@@](O)([C@@H]1CSC(=O)N1)C2 [Latrunculin B],dose response of NEUROG3 expression,"plated stage 4 cells; added during stage 4, qRT-PCR",increased NEUROG3 expression in a dose-dependent manner
same,concentration required relative to latrunculin A to achieve a similar effect on NEUROG3,"plated stage 4 cells; plated HUES8, stage 4",~10 ×
C/C1=C\[C@H](C)C[C@H](C)OC(=O)C[C@H](c2ccc(O)cc2)NC(=O)[C@@H](Cc2c(Br)[nH]c3ccccc23)N(C)C(=O)[C@H](C)NC(=O)[C@@H](C)C1 [jasplakinolide],premature NEUROG3 expression in reaggregated clusters,plated stage 4 cells; added to pancreatic progenitors during reaggregation after dispersion,attenuated premature NEUROG3 expression
CCCCNC(=O)NS(=O)(=O)c1ccc(C)cc1 [Tolbutamide],"insulin secretion during second challenge, secretagogue added to 20 mM glucose",Stage 6 cells [1],increased insulin secretion over high glucose alone
"Cc1cccc(-c2[nH]ncc2-c2ccc3ncccc3n2)n1 [Alk5i, Alk5 inhibitor type II]",GSIS in a static assay with inclusion during Stage 6,Stage 6 cells [2]; Alk5i during Stage 6,relatively weak but statistically significant GSIS
same,insulin secretion in the dynamic GSIS assay,Stage 6 cells [2]; Alk5i during Stage 6,dramatically reduced insulin secretion
same,proinsulin/insulin ratio,Stage 6 cells [2]; DMSO versus Alk5i during Stage 6,remained similar
same,"fraction of cells expressing pancreatic endocrine markers, including C-peptide","Stage 6 cells [2]; DMSO- versus Alk5i-treated cells, Stage 6",remained similar
same,insulin content,Stage 6 cells [2]; removal of Alk5i during Stage 6 versus treatment,increased with removal of Alk5i
same,phosphorylated SMAD,[3],diminished phosphorylated SMAD
same,insulin secretion after further 7 d in Stage 6,"Stage 5 cells; Alk5i during Stage 5, Stage 6 without Alk5i nor cluster resizing, 20 mM glucose",substantially higher in cells treated with Alk5i during Stage 5
same,INS and GCG gene expression,Stage 5 cells; Alk5i omission during Stage 5,decreased with Alk5i omission
same,SST expression,Stage 5 cells; Alk5i omission during Stage 5,slightly increased
same,fraction of cells co-expressing C-peptide and NKX6-1,Stage 5 cells; omitting Alk5i during Stage 5,decreased by omitting Alk5i
same,fraction of cells differentiated to a C-peptide+ phenotype,Stage 5 cells; omitting Alk5i during Stage 5,decreased by omitting Alk5i
same,fraction of cells differentiated to endocrine cells (CHGA+),Stage 5 cells; omitting Alk5i during Stage 5,unchanged
same,expression of NKX6-1 and PDX1,Stage 5 cells; without Alk5i during Stage 5,reduced without Alk5i
N=C(N)NCCC[C@H](N)C(=O)O [L-Arginine],"insulin secretion during second challenge, secretagogue added to 20 mM glucose",Stage 6 cells [1],largest increases

# Reference: patent US20210207099A1, “METHODS AND COMPOSITIONS FOR GENERATING CELLS OF ENDODERMAL LINEAGE AND BETA CELLS AND USES THEREOF” (priority 2018, published 2021)
